This note sets out measurements from patent publication US11065335B2, “Methods of treating leukemia using compositions containing bis(benzylthio)octanoic acid and ion pairs thereof” (Rafael Pharmaceuticals, Inc., priority 2007, dated 2021).

Structures can show the parent of a compound that is named as a salt.

Data set [1] is described as follows: in vitro. Particulars: human, A2780 Cell Viability; for viability: 24 hrs. The method, then: (§1) Two types of human tumor cells were used in this investigation: BXPC3 human pancreatic cancer cells and A2780 human ovarian cancer cells. The BXPC3 cells were originally obtained from American Type Cell Culture (ATCC). The ovarian tumor cells were gifts from Roswell Park Cancer Institute, Buffalo, N.Y. All tumor cells were maintained at 37° C. in a humidified 5% CO2 atmosphere in T75 tissue culture flasks containing 20 mL of Roswell Park Memorial Institute (RPMI) 1640 containing 2 mM L-glutamine, 10% fetal bovine serum (FBS) and 1% penicillin and streptomycin (100 IU/mL penicillin and 100 μg/mL streptomycin). The tumor cells were split at a ratio of 1:5 every 4-5 days by trypsinization and resuspended in fresh medium in a new flask. Cells were harvested for experiments at 70-90% confluency.
(§2) CPI-613 (i.e., 6,8-bis(benzylthio)octanoic acid) stock solutions at concentrations of 8, 4, 2, 1.5 and 0.5 mM were prepared in the appropriate vehicles. The molar ratio of vehicle to CPI-613 was maintained at 8:1. The corresponding vehicle concentrations were 64, 32, 16, 12, and 4 mM respectively. A sixty-four mM aliquot of vehicle was dissolved in 10 mL of water. Next, 8 mM of CPI-613 was added and the mixture was stirred until a clear solution was obtained. […] A 5 μL aliquot of this stock solution was added to 95 μL of tumor cells in media. Upon dilution in the wells, the corresponding drug concentrations were 400, 200, 100, 75 and 25 μM respectively.
(§3) For the sodium salt and potassium salt form of CPI-613, 1 equivalent of CPI-613 solid was dissolved in water. Sixty-two mg of CPI-613 (0.00016 mol) was added to 10 mL of water, then 165 μL of 1M NaOH or KOH was added and stirred until a clear solution was obtained. This gave a 16 mM solution. The resulting 16 mM solution was then serially diluted, thereby providing 8 mM and 4 mM solutions of the CPI-613 salt form. For the ammonium salt, vehicle to drug ratio was maintained at 8:1 and the formulation was prepared using procedures analogous to those described above in Section 2 relating to preparation of CPI-613 formulations in different vehicles.
(§4) CPI-613 formulated in 1M triethanolamine (TEA) was used as an internal control during formulation screening. To prepare a 16 mM of working stock of CPI-613, 50 mg/mL of CPI-613 (128.66 mM of CPI-613 in 1M TEA) was diluted in complete cell culture media containing 10% FBS. That is, 310 μL of a 128.66 mM solution of CPI-613 in 1M TEA was added to 2.19 mL of cell culture media. This stock was further diluted serially in complete media to give 8 mM, 4 mM 2 mM, 1.5 mM and 0.5 mM working solutions. On the day of testing, 5 μL of this working solution was added to 95 μL of cell culture media (20 fold dilution) resulting final concentrations of 400, 200, 100, 75 and 25 μM CPI-613, respectively. The ratio of CPI-613 to TEA was maintained at 1:8 ratio at all times.
(§5) The cell viability of CPI-613 formulations formulated at a ratio of 1:8, CPI-613 to vehicle, was assessed by exposing the A2780 ovarian tumor cells and BXPC3 human pancreatic cancer cells to the following CPI-613 concentrations: 400 μM (3200 μM vehicle), 200 μM (1600 μM vehicle), 100 μM (800 μM vehicle), 75 μM (600 μM vehicle) and 25 μM (200 μM vehicle) The impact of corresponding vehicles at 3200, 1600 and 800 μM concentrations was also tested in tumor cells for cell viability. […] CPI-613 in TEA was used as an internal control. The tumor cells were treated for 24 hrs with the test article in serum-containing medium. After 24 hrs of treatment the number of viable tumor cells was determined.
(§6) The number of cells targeted for the study was 4×10^3 per well in 100 μL of medium. The actual number of cells were counted and seeded in the wells of a 96 well-plate. The cells were incubated for ˜24 hrs before addition of CPI-613.
(§7) For each cell line the concentrations of test articles or vehicles specified above was used.

Data set [2] is described as follows: in vitro. Particulars: human, BXPC3 Cell Viability; for viability: 24 hrs. The procedure:
as §1, §2, §3, §4, §5, §6, §7

The test system of data set [3] is A2780 ovarian tumor cells and BXPC3 human pancreatic cancer cells. As to the kind of experiment: CellTiter Glo cell viability assay, text statements not split by cell line. The class given is cell-based. Particulars: for impact of vehicle on cancer cell killing: vehicle alone 3200 μM; for cell kill: 24 hrs. The procedure: Two types of human tumor cells were used in this investigation: BXPC3 human pancreatic cancer cells and A2780 human ovarian cancer cells. The BXPC3 cells were originally obtained from American Type Cell Culture (ATCC). […] The tumor cells were split at a ratio of 1:5 every 4-5 days by trypsinization and resuspended in fresh medium in a new flask. Cells were harvested for experiments at 70-90% confluency.
The corresponding vehicle concentrations were 64, 32, 16, 12, and 4 mM respectively. A sixty-four mM aliquot of vehicle was dissolved in 10 mL of water. […] A 5 μL aliquot of this stock solution was added to 95 μL of tumor cells in media. Upon dilution in the wells, the corresponding drug concentrations were 400, 200, 100, 75 and 25 μM respectively.
This gave a 16 mM solution.
This stock was further diluted serially in complete media to give 8 mM, 4 mM 2 mM, 1.5 mM and 0.5 mM working solutions.
The tumor cells were treated for 24 hrs with the test article in serum-containing medium. After 24 hrs of treatment the number of viable tumor cells was determined.
The number of cells targeted for the study was 4×10^3 per well in 100 μL of medium. The actual number of cells were counted and seeded in the wells of a 96 well-plate.
For each cell line the concentrations of test articles or vehicles specified above was used. Five μL of the working solution for each test article or vehicle was added to 95 μL of cell culture media. The corresponding final concentrations of test articles are 20 fold more diluted than the working solutions. […] Additionally, a set of wells was treated with cell culture medium in the absence of cells to obtain a value for background luminescence.
The number of viable cells was determined by using the CellTiter Glo® Assay. Specifically, reagents were mixed and allowed to come to room temperature according to instructions from Promega, Inc. (Madison, Wis.). Cell plates were removed from the cell culture incubator and left on the bench for 30 minutes until they reach room temperature. A one-hundred μL aliquot CellTiter Glo® reagent was added to each well with a 12-channel Eppendorf pipettor. The cells were lysed by shaking the plate for 2 minutes in a shaker. Then, the cells were kept at room temperature for 10 minutes to stabilize the luminescent signal. The luminescence was measured using the FLUOstar OPTIMA plate reader (BMG Labtech, Inc., Durham, N.C.).
Data from luminescence readings was copied onto EXCEL spreadsheets, and cell growth relative to untreated cells was calculated, using the following equation: […]
The calculated values were imported into SigmaPlot, v11. A Four-Parameter Logistic Curve of the “mean relative cell growth as a function of the concentrations of the test articles” was generated. The EC50 values were determined from the curves. The R-squared value provides an indication of the degree of fitness of data to the curve. For each experiment, the percentage of viable cells was be expressed as the mean of 9 replicates. The average was calculated by taking the mean±standard deviation of the three experiments.
A general note: Cellular ATP, detected with luciferase, serves as a proxy for viable cell number.

Data set [4] has as its system A2780 human ovarian cancer cells. As to the kind of experiment: CellTiter Glo cell viability assay, A2780 cells. Particulars: Homo sapiens, A2780, 24 h. The method, then:
as §1, §2, §3, §4, §5, §6, §7

Data set [5] deals with BXPC3 human pancreatic cancer cells. Nature of the data set: CellTiter Glo cell viability assay, BXPC3 cells. The following applies: Homo sapiens, BXPC-3, 24 h. The method, then:
as §1, §2, §3, §4, §5, §6, §7

[6] abbreviates: A2780 ovarian cancer cells, vehicle alone 800 μM.
Where [7] appears, read: A2780 ovarian cancer cells, vehicle alone 1600 μM.
Where [8] appears, read: A2780 ovarian cancer cells, vehicle alone 3200 μM.
[9] abbreviates: BXPC3 pancreatic cancer cells, vehicle alone 800 μM.
The mark [10] stands for this setting: BXPC3 pancreatic cancer cells, vehicle alone 1600 μM.
Where [11] appears, read: BXPC3 pancreatic cancer cells, vehicle alone 3200 μM.

Consider `CNC[C@H](O)[C@@H](O)[C@H](O)[C@H](O)CO` [Meglumine], for which the viability in “in vitro [1]” (vehicle alone 800 μM) is greater than 95%; in “in vitro [1]” (vehicle alone 1600 μM), greater than 95%; in “in vitro [1]” (vehicle alone 3200 μM) it was greater than 95%; in the data set “in vitro [2]” (vehicle alone 800 μM), 85 to 95%; in the data set “in vitro [2]” (vehicle alone 1600 μM), 85 to 95%; in the data set “in vitro [2]” (vehicle alone 3200 μM), 85 to 95%. The “impact of vehicle on cancer cell killing” value in data set [3] is reported as “did not show a significant impact on cancer cell killing”.

As for `O=C(O)CCCCC(CCSCc1ccccc1)SCc1ccccc1` (stereo not shown) [CPI-613 ammonium salt], the viability at 25 µM in data set [4] (read-out: A2780 Cell Viability (ammonium salt formulations), CPI-613 25 μM, ratio 1:8) is greater than 95%; in data set [5] (read-out: BXPC3 Cell Viability (ammonium salt formulations), CPI-613 25 μM, ratio 1:8), greater than 95%. Also, the viability at 75 µM was greater than 95% in data set [4] (read-out: A2780 Cell Viability (ammonium salt formulations), CPI-613 75 μM, ratio 1:8) and greater than 95% in data set [5] (read-out: BXPC3 Cell Viability (ammonium salt formulations), CPI-613 75 μM, ratio 1:8). Besides, the viability at 100 µM in data set [4] (read-out: A2780 Cell Viability (ammonium salt formulations), CPI-613 100 μM, ratio 1:8) is 70 to 95%; in data set [5] (read-out: BXPC3 Cell Viability (ammonium salt formulations), CPI-613 100 μM, ratio 1:8) it was greater than 95%. Further, the viability at 200 µM is 10 to 30% in data set [4] (read-out: A2780 Cell Viability (ammonium salt formulations), CPI-613 200 μM, ratio 1:8) and 30 to 70% in data set [5] (read-out: BXPC3 Cell Viability (ammonium salt formulations), CPI-613 200 μM, ratio 1:8). The viability at 400 µM in data set [4] (read-out: A2780 Cell Viability (ammonium salt formulations), CPI-613 400 μM, ratio 1:8) is less than 10%; in data set [5] (read-out: BXPC3 Cell Viability (ammonium salt formulations), CPI-613 400 μM, ratio 1:8), less than 10%. Further, the cell kill is reported as 70-80% in data set [3] (ammonium salt formulation at 200 μM) and 100% in data set [3] (ammonium salt formulation at 400 μM).

On to `C1CNCCN1` [Piperazine], for which the viability at 24 h, 800 μM in “in vitro [1]” (setting [6]) and in “in vitro [2]” (setting [9]) was 85 to 95% each time. The viability at 24 h, 1600 μM was 70 to 85% in the data set “in vitro [1]” (setting [7]) and 85 to 95% in the data set “in vitro [2]” (setting [10]). Further, the viability at 24 h, 3200 μM was 85 to 95% in “in vitro [1]” (setting [8]) and 70 to 85% in “in vitro [2]” (setting [11]). Moreover, in data set [3], the “impact of vehicle on cancer cell killing” value is on record as “did not show a significant impact on cancer cell killing”.

In the case of `CCNCC` [Diethylamine], the viability at 24 h, 800 μM in “in vitro [1]” (vehicle alone 800 μM) and in “in vitro [2]” (vehicle alone 800 μM) was greater than 95% throughout. Moreover, the viability at 24 h, 1600 μM in “in vitro [1]” (vehicle alone 1600 μM) was greater than 95%; in the data set “in vitro [2]” (vehicle alone 1600 μM) it was 70 to 85%. The viability at 24 h, 3200 μM in “in vitro [1]” (vehicle alone 3200 μM) was 85 to 95%; in the data set “in vitro [2]” (vehicle alone 3200 μM), less than 70%. Moreover, the “impact of vehicle on cancer cell killing” value in data set [3] is “did not show a significant impact on cancer cell killing”.

With `NCCCC[C@H](N)C(=O)O` [Lysine], the viability at 24 h, 800 μM in the data set “in vitro [1]” (setting [6]) and in “in vitro [2]” (setting [9]) was greater than 95% each time. The viability at 24 h, 1600 μM in “in vitro [1]” (setting [7]) and in “in vitro [2]” (setting [10]) was greater than 95% in each case. Moreover, the viability at 24 h, 3200 μM in the data set “in vitro [1]” (setting [8]) and in “in vitro [2]” (setting [11]) was greater than 95% throughout. Also, the “impact of vehicle on cancer cell killing” value in data set [3] was “did not show a significant impact on cancer cell killing”.
